In PubChem BioAssay (NCI):
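Compound exposure: 48 hours, 5 concentrations, 96-well plates. TGI: concentration producing complete growth inhibition.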

How the values were obtained:
Test in all cases: NCI-60 cell line screen, 48 h
786-0 renal = system: 786-0 renal
A549 NSCLC = system: A549 NSCLC
ACHN renal = system: ACHN renal
BT-549 breast = system: BT-549 breast
CAKI-1 renal = system: CAKI-1 renal
CCRF-CEM leukemia = system: CCRF-CEM leukemia
COLO 205 colon = system: COLO 205 colon
DU-145 prostate = system: DU-145 prostate
EKVX NSCLC = system: EKVX NSCLC
HCC-2998 colon = system: HCC-2998 colon
HCT-116 colon = system: HCT-116 colon
HCT-15 colon = system: HCT-15 colon
HL-60(TB) leukemia = system: HL-60(TB) leukemia
HOP-62 NSCLC = system: HOP-62 NSCLC
HOP-92 NSCLC = system: HOP-92 NSCLC
HS 578T breast = system: HS 578T breast
HT29 colon = system: HT29 colon
IGROV1 ovarian = system: IGROV1 ovarian
K-562 leukemia = system: K-562 leukemia
KM12 colon = system: KM12 colon
LOX IMVI melanoma = system: LOX IMVI melanoma
M14 melanoma = system: M14 melanoma
MALME-3M melanoma = system: MALME-3M melanoma
MCF7 breast = system: MCF7 breast
MDA-MB-231 breast = system: MDA-MB-231 breast
MDA-MB-435 = system: MDA-MB-435
MDA-N = system: MDA-N
MOLT-4 leukemia = system: MOLT-4 leukemia
NCI-H226 lung = system: NCI-H226 lung
NCI-H23 lung = system: NCI-H23 lung
NCI-H460 lung = system: NCI-H460 lung
NCI/ADR-RES ovarian = system: NCI/ADR-RES ovarian
OVCAR-3 ovarian = system: OVCAR-3 ovarian
OVCAR-4 ovarian = system: OVCAR-4 ovarian
OVCAR-5 ovarian = system: OVCAR-5 ovarian
OVCAR-8 ovarian = system: OVCAR-8 ovarian
PC-3 prostate = system: PC-3 prostate
RPMI-8226 leukemia = system: RPMI-8226 leukemia
RXF 393 renal = system: RXF 393 renal
SF-268 CNS = system: SF-268 CNS
SF-295 CNS = system: SF-295 CNS
SF-539 CNS = system: SF-539 CNS
SK-MEL-2 melanoma = system: SK-MEL-2 melanoma
SK-MEL-28 melanoma = system: SK-MEL-28 melanoma
SK-MEL-5 melanoma = system: SK-MEL-5 melanoma
SK-OV-3 ovarian = system: SK-OV-3 ovarian
SN12C renal = system: SN12C renal
SNB-19 CNS = system: SNB-19 CNS
SNB-75 CNS = system: SNB-75 CNS
SR leukemia = system: SR leukemia
SW-620 colon = system: SW-620 colon
T-47D breast = system: T-47D breast
TK-10 renal = system: TK-10 renal
U251 CNS = system: U251 CNS
UACC-257 melanoma = system: UACC-257 melanoma
UACC-62 melanoma = system: UACC-62 melanoma
UO-31 renal = system: UO-31 renal
NCI-H522 lung = system: NCI-H522 lung

Measured: TGI

CCOC(=O)C(NC(=O)c1ccccc1)(Nc1ccc(S(=O)(=O)Nc2ncccn2)cc1)C(F)(F)F (stereo not given)
> 100 µM: 786-0 renal | A549 NSCLC | ACHN renal | BT-549 breast | CAKI-1 renal | CCRF-CEM leukemia | COLO 205 colon | DU-145 prostate | EKVX NSCLC | HCC-2998 colon | HCT-116 colon | HCT-15 colon | HL-60(TB) leukemia | HOP-62 NSCLC | HOP-92 NSCLC | HS 578T breast | HT29 colon | IGROV1 ovarian | K-562 leukemia | KM12 colon | LOX IMVI melanoma | M14 melanoma | MALME-3M melanoma | MCF7 breast | MDA-MB-231 breast | MDA-MB-435 | MDA-N | MOLT-4 leukemia | NCI-H226 lung | NCI-H23 lung | NCI-H460 lung | NCI/ADR-RES ovarian | OVCAR-3 ovarian | OVCAR-4 ovarian | OVCAR-5 ovarian | OVCAR-8 ovarian | PC-3 prostate | RPMI-8226 leukemia | RXF 393 renal | SF-268 CNS | SF-295 CNS | SF-539 CNS | SK-MEL-2 melanoma | SK-MEL-28 melanoma | SK-MEL-5 melanoma | SK-OV-3 ovarian | SN12C renal | SNB-19 CNS | SNB-75 CNS | SR leukemia | SW-620 colon | T-47D breast | TK-10 renal | U251 CNS | UACC-257 melanoma | UACC-62 melanoma | UO-31 renal

Oc1ccc([C@H]2c3c(O)cc(O)cc3C3c4c(cc(O)cc4[C@@H]2[C@H]2c4cc(O)cc5c4C(c4cc(O)cc(O)c4[C@@H]2c2ccc(O)cc2)[C@@H](c2ccc(O)cc2)O5)O[C@@H]3c2ccc(O)cc2)cc1 (stereo not given in full)
50 µM: SR leukemia
0.428 µM: RXF 393 renal
0.972 µM: SK-MEL-28 melanoma
8.15 µM: COLO 205 colon
5.33 µM: SF-539 CNS
8.53 µM: OVCAR-4 ovarian
> 100 µM: 786-0 renal | A549 NSCLC | ACHN renal | BT-549 breast | CAKI-1 renal | CCRF-CEM leukemia | DU-145 prostate | EKVX NSCLC | HCT-116 colon | HCT-15 colon | HL-60(TB) leukemia | HOP-62 NSCLC | HS 578T breast | HT29 colon | IGROV1 ovarian | K-562 leukemia | KM12 colon | LOX IMVI melanoma | M14 melanoma | MALME-3M melanoma | MCF7 breast | MDA-MB-231 breast | MDA-MB-435 | MDA-N | MOLT-4 leukemia | NCI-H226 lung | NCI-H23 lung | NCI-H460 lung | NCI-H522 lung | NCI/ADR-RES ovarian | OVCAR-3 ovarian | OVCAR-5 ovarian | OVCAR-8 ovarian | PC-3 prostate | RPMI-8226 leukemia | SF-268 CNS | SF-295 CNS | SK-MEL-2 melanoma | SK-MEL-5 melanoma | SN12C renal | SNB-19 CNS | SNB-75 CNS | T-47D breast | TK-10 renal | U251 CNS | UACC-257 melanoma | UACC-62 melanoma
